# According to patent US9745284B2, “2-pyridyloxy-4-ether orexin receptor antagonists” (MERCK SHARP & DOHME CORP., priority 2013, dated 2017):
# What was measured:
# [1] = molecular target: human orexin-2 receptor (Homo sapiens (Human), UniProt O43614); test: FLIPR Ca2+ flux assay, orexin-2 receptor; type: cell-based; settings: CHO cells expressing human orexin-2 receptor; agonist 70 pM Ala-6,12 orexin-A; read-out: hOX2R FLIPR IC50
# Protocol: The utility of the compounds in accordance with the present invention as orexin receptor OX1R and/or OX2R antagonists may be readily determined without undue experimentation by methodology well known in the art, including the “FLIPR Ca^2+ Flux Assay” (Okumura et al., Biochem. Biophys. Res. Comm. 280:976-981, 2001). In a typical experiment the OX1 and OX2 receptor antagonistic activity of the compounds of the present invention was determined in accordance with the following experimental method. For intracellular calcium measurements, Chinese hamster ovary (CHO) cells expressing the rat orexin-1 receptor or the human orexin-2 receptor, are grown in Iscove's modified DMEM containing 2 mM L-glutamine, […], 1% hypoxanthine-thymidine supplement, 100 U/ml penicillin, 100 μg/ml streptomycin and 10% heat-inactivated fetal calf serum (FCS). The cells are seeded at 20,000 cells/well into Becton-Dickinson black 384-well clear bottom sterile plates coated with poly-D-lysine. All reagents were from GIBCO-Invitrogen Corp. The seeded plates are incubated overnight at 37° C. and 5% CO2. Ala-6,12 human orexin-A as the agonist is prepared as a 1 mM stock solution in 1% bovine serum albumin (BSA) and diluted in assay buffer (HBSS containing 20 mM HEPES, 0.1% BSA and 2.5 mM probenecid, pH7.4) for use in the assay at a final concentration of 70 pM. Test compounds are prepared as 10 mM stock solution in DMSO, then diluted in 384-well plates, first in DMSO, then assay buffer. On the day of the assay, cells are washed 3 times with 100 μl assay buffer and then incubated for 60 min (37° C., 5% CO2) in 60 μl assay buffer containing 1 μM Fluo-4AM ester, 0.02% pluronic acid, and 1% BSA. The dye loading solution is then aspirated and cells are washed 3 times with 100 μl assay buffer. 30 μl of that same buffer is left in each well. Within the Fluorescent Imaging Plate Reader (FLIPR, Molecular Devices), test compounds are added to the plate in a volume of 25 μl, incubated for 5 min and finally 25 μl of agonist is added. Fluorescence is measured for each well at 1 second intervals for 5 minutes and the height of each fluorescence peak is compared to the height of the fluorescence peak induced by 70 pM Ala-6,12 orexin-A with buffer in place of antagonist. For each antagonist, IC50 value (the concentration of compound needed to inhibit 50% of the agonist response) is determined. Alternatively, compound potency can be assessed by a radioligand binding assay (described in Bergman et. al. Bioorg. Med. Chem. Lett. 2008, 18, 1425-1430) in which the inhibition constant (Ki) is determined in membranes prepared from CHO cells expressing either the OX1 or OX2 receptor. The intrinsic orexin receptor antagonist activity of a compound which may be used in the present invention may be determined by these assays.
# [2] = molecular target: hOX1R (Homo sapiens, UniProt O43613); test: FLIPR Ca2+ flux assay, orexin-1 receptor; type: cell-based; settings: CHO cells expressing orexin-1 receptor; agonist 70 pM Ala-6,12 orexin-A
# Chain of human orexin-2 receptor (O43614 whole entry): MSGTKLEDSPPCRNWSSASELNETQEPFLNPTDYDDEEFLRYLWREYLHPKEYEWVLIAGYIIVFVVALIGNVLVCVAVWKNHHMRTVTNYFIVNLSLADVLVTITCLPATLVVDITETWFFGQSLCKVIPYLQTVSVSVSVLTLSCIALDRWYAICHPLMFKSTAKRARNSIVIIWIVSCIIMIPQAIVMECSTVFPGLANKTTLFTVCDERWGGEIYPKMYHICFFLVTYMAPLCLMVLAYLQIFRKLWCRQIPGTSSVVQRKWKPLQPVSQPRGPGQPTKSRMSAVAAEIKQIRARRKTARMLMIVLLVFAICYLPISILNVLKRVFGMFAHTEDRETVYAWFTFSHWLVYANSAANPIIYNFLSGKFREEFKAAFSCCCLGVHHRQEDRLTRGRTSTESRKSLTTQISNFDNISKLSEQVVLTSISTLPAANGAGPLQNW
Compound,IC50 [1],IC50 [2]
"C[C@@H]1CC[C@@H](Oc2cc(OC(F)F)ccn2)CN1C(=O)c1cscc1-n1nccn1 [Example 55, 4-(difluoromethoxy)-2-{[(3R,6R)-6-methyl-1-{[4-(2H-1,2,3-triazol-2-yl)thiophen-3-yl]carbonyl}piperidin-3-yl]oxy}pyridine]",13 nM,1760 nM
"C[C@@H]1CC[C@@H](Oc2cc(OC(F)F)ccn2)CN1C(=O)c1ccccc1C1(C#N)CC1 [Example 56, 1-(2-{[(2R,5R)-5-{[4-(difluoromethoxy)pyridin-2-yl]oxy}-2-methylpiperidin-1-yl]carbonyl}phenyl) cyclopropane-carbonitrile]",11 nM,1140 nM
"C[C@@H]1CC[C@@H](Oc2cc(OC(F)F)ccn2)CN1C(=O)c1ccccc1-n1ncnn1 [Example 57, 4-(difluoromethoxy)-2-{[(3R,6R)-6-methyl-1-{[2-(2H-tetrazol-2-yl)phenyl]carbonyl}piperidin-3-yl]oxy}pyridine]",11 nM,1690 nM
"COc1ccnc(O[C@@H]2CC[C@@H](C)N(C(=O)c3ccsc3-c3ncccn3)C2)c1 [Example 58, ((2R,5R)-5-((4-Methoxypyridin-2-yl)oxy)-2-methylpiperidin-1-yl)(2-(pyrimidin-2-yl)thiophen-3-yl)methanone]",21 nM,1110 nM
"C[C@@H]1CC[C@@H](Oc2cc(OCC(F)F)ccn2)CN1C(=O)c1ccsc1-n1nccn1 [Example 60, (2-(2H-1,2,3-Triazol-2-yl)thiophen-3-yl)((2R,5R)-5-((4-(2,2-difluoroethoxy)pyridin-2-yl)oxy)-2-methylpiperidin-1-yl)methanone]",22 nM,2020 nM
"CC(C)Oc1ccnc(O[C@@H]2CC[C@@H](C)N(C(=O)c3ccsc3-n3nccn3)C2)c1 [Example 61, 4-(1-methylethoxy)-2-{[(3R,6R)-6-methyl-1-{[2-(2H-1,2,3-triazol-2-yl)thiophen-3-yl]carbonyl}piperidin-3-yl]oxy}pyridine]",25 nM,1480 nM
"CCOc1ccnc(O[C@@H]2CC[C@@H](C)N(C(=O)c3ccsc3-n3nccn3)C2)c1 [Example 62, 4-ethoxy-2-{[(3R,6R)-6-methyl-1-{[2-(2H-1,2,3-triazol-2-yl)thiophen-3-yl]carbonyl}piperidin-3-yl]oxy}pyridine]",22 nM,1160 nM
"C[C@@H]1CC[C@@H](Oc2cc(OCC(F)(F)F)ccn2)CN1C(=O)c1ccsc1-n1nccn1 [Example 63, 2-{[(3R,6R)-6-methyl-1-{[2-(2H-1,2,3-triazol-2-yl)thiophen-3-yl]carbonyl}piperidin-3-yl]oxy}-4-(2,2,2-trifluoroethoxy) pyridine]",55 nM,8380 nM
"C[C@@H]1CC[C@@H](Oc2cc(OCC(F)F)ccn2)CN1C(=O)c1ccsc1-c1ncccn1 [Example 64, ((2R,5R)-5-((4-(2,2-Difluoroethoxy)pyridin-2-yl)oxy)-2-methylpiperidin-1-yl)(2-(pyrimidin-2-yl)thiophen-3-yl)methanone]",36 nM,5210 nM
"CCOc1ccnc(O[C@@H]2CC[C@@H](C)N(C(=O)c3ccsc3-c3ncccn3)C2)c1 [Example 65, ((2R,5R)-5-(4-Ethoxypyridin-2-yloxy)-2-methylpiperidin-1-yl)(2-(pyrimidin-2-yl)thiophen-3-yl)methanone]",26 nM,899 nM
"C[C@@H]1CC[C@@H](Oc2cc(OCC(F)(F)F)ccn2)CN1C(=O)c1ccsc1-c1ncccn1 [Example 66, 2-(3-{[(2R,5R)-2-methyl-5-{[4-(2,2,2-trifluoroethoxy)pyridin-2-yl]oxy}piperidin-1-yl]carbonyl}thiophen 2-yl)pyrimidine]",26 nM,2080 nM
